Results taken from patent publication US4196205A, “3-Acetoxymethyl-7-(iminoacetamido)-cephalosporanic acid derivatives” (priority 1976, dated 1980).
Values after ≈ are worked out from the molar mass of the structure shown. Read-outs that look alike come from different tables or passages of the source.

Columns and labels:
[1] = tested on: Bacillus subtilis ATCC 6 633; assay: MIC, dilution in liquid medium; type: cell-based; details: for MIC: Bacillus subtilis, read-out: M.I.C.
Procedure: (§1) The method used was a dilution of a liquid medium where a series of tubes received the same quantity of a sterile nutritive media and increasing doses of the test compounds were placed therein. Then each tube was seeded with a bacterial strain and was incubated for 24 to 48 hours at 37° C. in an oven. The increasing inhibition was determined by transillumination to determine the minimum inhibiting concentration (MIC in […]) and the results are reported in the following Tables.

[2] = tested on: Escherichia Coli Exp. TO26 B6; assay: MIC, dilution in liquid medium; type: cell-based
Procedure: as §1

[3] = tested on: Escherichia Coli Resistant Gentamicine, Tobramycine R 55 123 D; assay: MIC, dilution in liquid medium; type: cell-based; details: Escherichia coli
Procedure: as §1

[4] = tested on: Escherichia Coli Resistant Tetracycline ATCC 11 303 = UC 1261; assay: MIC, dilution in liquid medium; type: cell-based; details: Escherichia coli, 24 h
Procedure: as §1

[5] = tested on: Escherichia Coli Sensible Tetracycline ATCC 9 637 = 1020; assay: MIC, dilution in liquid medium; type: cell-based; details: for MIC: Escherichia coli
Procedure: as §1

[6] = tested on: Klebsiella pneumoniae 2 536 Resistant Gentamicine; assay: MIC, dilution in liquid medium; type: cell-based; details: Klebsiella pneumoniae
Procedure: as §1

[7] = tested on: Klebsiella pneumoniae Exp. 52 145; assay: MIC, dilution in liquid medium; type: cell-based; details: Klebsiella pneumoniae, read-out: M.I.C.
Procedure: as §1

[8] = tested on: Proteus mirabilis (indol-) A 235; assay: MIC, dilution in liquid medium; type: cell-based; details: Proteus mirabilis, read-out: M.I.C.
Procedure: as §1

[9] = tested on: Proteus vulgaris (indol+) A 232; assay: MIC, dilution in liquid medium; type: cell-based; details: for MIC: Proteus vulgaris
Procedure: as §1

[10] = tested on: Providencia Du 48; assay: MIC, dilution in liquid medium; type: cell-based; details: Providencia
Procedure: as §1

[11] = tested on: Pseudomonas 3 935 Exp. SG; assay: MIC, dilution in liquid medium; type: cell-based; details: for MIC: Pseudomonas, 3935EXP.SG
Procedure: as §1

[12] = tested on: Salmonella typhimurium 420; assay: MIC, dilution in liquid medium; type: cell-based; details: for MIC: Salmonella enterica, TYPHIMURIUM
Procedure: as §1

[13] = tested on: Serratia Resistant Gentamicine 2 532; assay: MIC, dilution in liquid medium; type: cell-based; details: 24 h
Procedure: as §1

[14] = tested on: Staphylococcus aureus ATCC 5 638 Pen-Sensible = UC 1061; assay: MIC, dilution in liquid medium; type: cell-based; details: 24 h
Procedure: as §1

[15] = tested on: Staphylococcus aureus UC 1 128 Pen-Resistant; assay: MIC, dilution in liquid medium; type: cell-based; details: for MIC: Staphylococcus aureus
Procedure: as §1

[16] = tested on: Staphylococcus aureus exp. n° 54 146; assay: MIC, dilution in liquid medium; type: cell-based; details: Staphylococcus aureus, 24 h
Procedure: as §1

[17] = tested on: Streptococcus faecalis 5 432; assay: MIC, dilution in liquid medium; type: cell-based; details: Enterococcus faecalis, 5432, 48 h
Procedure: as §1

[18] = tested on: Streptococcus faecalis 99 F 74; assay: MIC, dilution in liquid medium; type: cell-based; details: Enterococcus faecalis, 99F74, 48 h, 48 H
Procedure: as §1

[19] = tested on: Streptococcus pyogenes A 561; assay: MIC, dilution in liquid medium; type: cell-based; details: Streptococcus pyogenes, read-out: M.I.C.
Procedure: as §1

[20] = tested on: Proteus Mirabilis A 235; assay: Experimental infection of Proteus Mirabilis in mice; type: in vivo
Procedure: Groups of 10 mice with an average weight of 22 g received intraperitoneally 0.5 ml of a 24 hour old culture in oxoid bouillon of Proteus Mirabilis A 235 diluted 1/4 with distilled water. The mice then received subcutaneously the compound of Examples 11 or 15 one hour and 5 and 24 hours after the infection and the results are reported in the following Table.

CCO/N=C(\C(=O)N[C@@H]1C(=O)N2C(C(=O)O)=C(COC(C)=O)CS[C@H]12)c1csc(N)n1 [Example 11, 3-acetoxymethyl-7-[2-(2-amino-4-thiazolyl)-2-ethoxyiminoacetamido]-ceph-3-eme-4-carboxylic acid]
M.I.C. ([1]; 24 H): 0,5 μg/ml | MIC ([1]; ATCC6, 24 h, 24 H): 0.4 µg/mL (≈ 0.852 µM) | MIC ([1]; ATCC6, 48 h, 48 H): 0.4 µg/mL (≈ 0.852 µM) | M.I.C. ([2]; 24 H): 0.4 µg/mL | M.I.C. ([2]; 48 H): 0.4 µg/mL | MIC ([3]; 24 h): 1 µg/mL (≈ 2.13 µM) | MIC ([3]; 24 h, read-out: M.I.C.): 0.6 µg/mL (≈ 1.28 µM) | MIC ([3]; 48 h): 1 µg/mL (≈ 2.13 µM) | MIC ([3]; 48 h, read-out: M.I.C.): 0.6 µg/mL (≈ 1.28 µM) | MIC [4]: ≤ 0.2 µg/mL | MIC ([4]; read-out: M.I.C.): 0.5 µg/mL (≈ 1.06 µM) | M.I.C. ([5]; 24 H): 2 µg/mL | M.I.C. ([5]; 48 H): 2 µg/mL | MIC ([5]; ATCC9, 24 h, 24 H): 1 µg/mL (≈ 2.13 µM) | MIC ([5]; ATCC9, 48 h, 48 H): 1 µg/mL (≈ 2.13 µM) | MIC ([6]; 24 h): 2 µg/mL (≈ 4.26 µM) | MIC ([6]; 24 h, read-out: M.I.C.): 10 µg/mL (≈ 21.3 µM) | MIC ([6]; 48 h): 2 µg/mL (≈ 4.26 µM) | MIC ([6]; 48 h, read-out: M.I.C.): 10 µg/mL (≈ 21.3 µM) | MIC ([7]; EXP.52145, 24 h, 24 H): 0.2 µg/mL (≈ 0.426 µM) | MIC ([7]; EXP.52145, 48 h, 48 H): 0.2 µg/mL (≈ 0.426 µM) | MIC ([8]; 24 h): 0.5 µg/mL (≈ 1.06 µM) | MIC ([8]; 48 h): 0.5 µg/mL (≈ 1.06 µM) | M.I.C. ([9]; 48 H): 1 µg/mL | MIC ([9]; 24 h, read-out: M.I.C.): 0.5 µg/mL (≈ 1.06 µM) | MIC ([9]; 48 h): 2 µg/mL (≈ 4.26 µM) | MIC ([10]; DU48, 24 h, 24 H): 5 µg/mL (≈ 10.6 µM) | MIC ([10]; DU48, 48 h, 48 H): 5 µg/mL (≈ 10.6 µM) | M.I.C. ([11]; 24 H): 40 µg/mL | MIC ([11]; 24 h): 20 µg/mL (≈ 42.6 µM) | MIC ([11]; 48 h): 40 µg/mL (≈ 85.2 µM) | M.I.C. ([12]; 24 H): 2 µg/mL | M.I.C. ([12]; 48 H): 2 µg/mL | MIC ([12]; 24 h): 1 µg/mL (≈ 2.13 µM) | MIC ([12]; 48 h): 1 µg/mL (≈ 2.13 µM) | MIC [13]: 2 µg/mL (≈ 4.26 µM) | MIC [14]: 2 µg/mL (≈ 4.26 µM) | M.I.C. ([15]; 24 H): 3 µg/mL | M.I.C. ([15]; 48 H): 5 µg/mL | MIC ([15]; UC1, 24 h, 24 H): 2 µg/mL (≈ 4.26 µM) | MIC ([15]; UC1, 48 h, 48 H): 3 µg/mL (≈ 6.39 µM) | MIC [16]: 2 µg/mL (≈ 4.26 µM) | MIC ([17]; 48 H): 40 µg/mL (≈ 85.2 µM) | MIC ([17]; read-out: M.I.C.): 10 µg/mL (≈ 21.3 µM) | MIC [18]: 20 µg/mL (≈ 42.6 µM) | MIC ([19]; A561, 24 h, 24 H): 0.02 µg/mL (≈ 0.0426 µM) | MIC ([19]; A561, 48 h, 48 H): 0.02 µg/mL (≈ 0.0426 µM) | MORTALITY AFTER 21H30 ([20]; 0.025 mg subcutaneously): 3 | MORTALITY AFTER 22H15 ([20]; 0.025 mg subcutaneously): 1 | MORTALITY AFTER 24H20 ([20]; 0.025 mg subcutaneously): 1 | MORTALITY AFTER 28H ([20]; 0.025 mg subcutaneously): 2 | MORTALITY AFTER 46H ([20]; 0.025 mg subcutaneously): 2 | MORTALITY AFTER 53H ([20]; 0.025 mg subcutaneously): 1 | Mice Alive on the 8th day ([20]; 0.025 mg subcutaneously): 0/10 | MORTALITY AFTER 22H15 ([20]; 0.05 mg subcutaneously): 1 | MORTALITY AFTER 24H20 ([20]; 0.05 mg subcutaneously): 1 | MORTALITY AFTER 31H45 ([20]; 0.05 mg subcutaneously): 1 | MORTALITY AFTER 70H ([20]; 0.05 mg subcutaneously): 2 | Mice Alive on the 8th day ([20]; 0.05 mg subcutaneously): 5/10 | MORTALITY AFTER 28H ([20]; 0.1 mg subcutaneously): 1 | MORTALITY AFTER 46H ([20]; 0.1 mg subcutaneously): 2 | Mice Alive on the 8th day ([20]; 0.1 mg subcutaneously): 7/10 | Mice Alive on the 8th day ([20]; 0.25 mg subcutaneously): 10/10 | Mice Alive on the 8th day ([20]; 0.5 mg subcutaneously): 10/10 | Mice Alive on the 8th day ([20]; 1 mg subcutaneously): 10/10
